{
  "source": "paper PMC2851491",
  "about": "(The Journal of infectious diseases, 2010)",
  "key": {"[1]": {"tested_on": "Day 0 wild-type isolate (A/Bethesda/NIH12-0/2008)", "test": "microbe, parasite or virus in culture", "type": "cell-based, influenza A/H3N2 virus"}, "[2]": {"tested_on": "Day 8 isolate (deletion in NA of AA 245–248)", "type": "cell-based, influenza A/H3N2 virus", "conditions": "read-out: High Throughput Assay EC50 (95% CI)"}, "[3]": {"tested_on": "A/Wisconsin/67/2005 (H3N2)", "test": "microbe, parasite or virus in culture", "type": "cell-based, influenza A/H3N2 virus"}, "[4]": {"tested_on": "Day 8 isolate (deletion in NA of AA 245–248)", "type": "cell-based, influenza A/H3N2 virus", "conditions": "for IC50: read-out: Plaque Reduction Assay IC50 (95% CI)"}, "[5]": {"tested_on": "Day 0 wild-type isolate (A/Bethesda/NIH12-0/2008)", "type": "cell-based, influenza A/H3N2 virus", "conditions": "read-out: Plaque Reduction Assay IC50 (95% CI)"}, "[6]": {"biological_target": "NA of Day 8 isolate (deletion in NA of AA 245–248) (Influenza A virus, UniProt D3XBZ2, DEL245-248)", "test": "biochemical", "type": "biochemical, influenza A/H3N2 virus"}, "[7]": {"biological_target": "NA of Day 0 wild-type isolate (A/Bethesda/NIH12-0/2008) (Influenza A virus, UniProt D3XBZ2)", "type": "biochemical, influenza A/H3N2 virus", "conditions": "read-out: NA-inhibition Assay IC50 (95% CI)"}, "[8]": {"conditions": "read-out: High Throughput Assay EC50 (95% CI)"}},
  "note": "Where two headings read alike, the source gives them in different places.",
  "data": [
    {"smiles": "CCOC(=O)C1=C[C@@H](OC(CC)CC)[C@H](NC(C)=O)[C@@H](N)C1", "note": "[Oseltamivir, oseltamivir]", "values": [
      {"measurement": "EC50", "setting": "[1]; [8]", "value": 0.21, "unit": "nM"},
      {"measurement": "EC50", "setting": "[2]", "value": 443, "unit": "nM"},
      {"measurement": "EC50", "setting": "[3]; [8]", "value": 0.37, "unit": "nM"},
      {"measurement": "IC50", "setting": "[4]", "value": 49.7, "unit": "nM"},
      {"measurement": "IC50", "setting": "[5]", "value": 0.38, "unit": "nM"}
    ]},
    {"smiles": "NC12CC3CC(CC(C3)C1)C2", "note": "[Amantadine, amantadine]", "values": [
      {"measurement": "EC50", "setting": "[1]; Influenza A virus, in Homo sapiens, 0 h, read-out: High Throughput Assay EC50", "value": "> 200000", "unit": "nM"},
      {"measurement": "EC50", "setting": "[3]; Influenza A virus, H3N2, read-out: High Throughput Assay EC50", "value": "> 200000", "unit": "nM"}
    ]},
    {"smiles": "CC(=O)N[C@H]1[C@H]([C@H](O)[C@H](O)CO)OC(C(=O)O)=C[C@@H]1N=C(N)N", "note": "[Zanamivir, zanamivir]", "values": [
      {"measurement": "IC50", "setting": "[6]", "value": 12.7, "unit": "nM"},
      {"measurement": "fold increase in IC50, NA activity assay", "setting": "[6]", "value": 3, "unit": "fold"},
      {"measurement": "fold increase in IC50 / IC50/EC50, summary over drug sensitivity assays", "setting": "[6]", "value": "3 to 7", "unit": "fold"},
      {"measurement": "IC50", "setting": "[7]", "value": 4, "unit": "nM"},
      {"measurement": "EC50", "setting": "[1]; [8]", "value": 18.9, "unit": "nM"},
      {"measurement": "EC50", "setting": "[2]", "value": 131, "unit": "nM"},
      {"measurement": "EC50", "setting": "[3]; [8]", "value": 6.16, "unit": "nM"},
      {"measurement": "fold increase in IC50, plaque reduction assay", "setting": "[4]", "value": 14, "unit": "fold"},
      {"measurement": "IC50", "setting": "[4]", "value": 224, "unit": "nM"},
      {"measurement": "IC50", "setting": "[5]", "value": 15.6, "unit": "nM"}
    ]}
  ]
}
